Data taken from patent US6118050A, “Hydroxyphenylpyruvate dioxygenase gene from arabidopsis and method of screening for inhibitors thereof” (American Cyanamid Company, priority 1997, dated 2000).

Key:
Lemna = settings: cited from earlier work
albino psdl mutant = settings: transferred to MS2 medium supplemented with OHPP or HGA; cited from earlier work
Arabidopsis HPPD = biological target: T1, Arabidopsis HPPD (Arabidopsis thaliana, UniProt P93836); assay: HPPD enzymatic activity by capture of released 14CO2 from 14C-hydroxyphenylpyruvate, extract of E. coli transformed with Arabidopsis HPPD gene; type: biochemical
T1 construct: made in house; host or cells: E. coli (pKK233-2, trc promoter); desalted lysate supernatant
T1 sequence (P93836 1-445): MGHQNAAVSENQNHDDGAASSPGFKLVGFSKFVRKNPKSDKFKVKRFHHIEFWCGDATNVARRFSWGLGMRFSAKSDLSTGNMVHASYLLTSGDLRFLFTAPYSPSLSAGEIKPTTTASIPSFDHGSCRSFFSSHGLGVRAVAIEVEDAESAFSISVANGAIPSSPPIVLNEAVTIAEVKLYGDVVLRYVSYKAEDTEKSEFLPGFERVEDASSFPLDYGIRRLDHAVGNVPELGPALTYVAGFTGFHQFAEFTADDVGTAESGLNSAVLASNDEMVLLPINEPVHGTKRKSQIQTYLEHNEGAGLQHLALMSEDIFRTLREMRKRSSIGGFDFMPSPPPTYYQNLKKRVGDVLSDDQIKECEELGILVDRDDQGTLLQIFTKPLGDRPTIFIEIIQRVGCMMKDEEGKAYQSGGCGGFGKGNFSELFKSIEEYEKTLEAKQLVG
Method: E. coli transformants were treated with 0.1 mg/ml lysozyme in 50 mM potassium phosphate buffer (pH 7.3) at 30° C. for 10 min. Cells were sonicated (3 times, 5 sec each, using a VibraCell sonicator, Sonics and Material, Inc., Danbury, Conn.) and the extract was subjected to centrifugation. The supernatant was desalted on an Econo-Pac 10DG column (Bio-Rad, Richmond, Calif.) that had been equilibrated with 50 mM phosphate buffer (pH 7.3). The desalted HPPD-containing extract was used for the HPPD assay.
HPPD enzymatic activity was determined by the capture of released ^14 CO2 from ^14 C-hydroxyphenylpyruvate (Schulz et al., FEBS Letts. 318:162, 1993; Secor, Plant Physiol. 106:1429, 1994). Reactions were performed in 20 ml scintillation vials, each capped with a serum stopper through which a polypropylene well containing 50 μl of benzethonium hydroxide was suspended. Each 450 μl reaction mixture contained: 50 mM potassium phosphate buffer (pH 7.3); 50 μl of a freshly prepared 1:1 (v/v) mixture of 150 mM reduced glutathione and 3 mM dichlorophenolindophenol; 2500 units of catalase; and bacterial extract (source of HPPD). Enzyme inhibitors were added where indicated. ^14 C-hydroxyphenylpyruvate (50 μl of a 2 mM solution), prepared according to the method of Secor (1994, supra), was added to initiate the reaction, which proceeded at 30° C. for 30 min. The reaction was stopped by adding 100 μl 4 N sulfuric acid and the mixture was incubated for a further 30 min. The radioactivity trapped in benzethonium hydroxide was counted in a scintillation counter.

[1] = biological target: partially purified enzyme extracted from maize (HPPD); settings: partially purified maize enzyme (Schulz et al., 1993); read-out: calculated IC50; cited from earlier work
[2] = biological target: partially purified HPPD from barnyardgrass (Echinochloa crus-galli L.); settings: partially purified HPPD from barnyardgrass (Secor, 1994); cited from earlier work
susceptible plants = settings: cited from earlier work
[3] = test system: E. coli transformed with the Arabidopsis HPPD gene; assay: Brown pigment formation in E. coli transformed with the Arabidopsis HPPD gene (absorption at 450 nm); type: cell-based; settings: medium supplemented with tyrosine (FIG. 2)
Source text: B. Production of Brown Pigment and Homogentisic Acid in E. coli
No similar brown pigmentation was associated with untransformed E. coli or with E. coli transformed with the control vector.

Which “reversal of the herbicidal effect of sulcotrione” value (Lemna; Lemna treated with sulcotrione) does the source give for `O=C(O)Cc1cc(O)ccc1O` [homogentisic acid] here?
The value was “herbicidal effect could be abolished”.

What about the “greening of albino psdl mutant” value (albino psdl mutant) of the same molecule?
The value was “greened”.

Which results are given for `CS(=O)(=O)c1ccc(C(=O)C2C(=O)CCCC2=O)c(Cl)c1` [sulcotrione, 2-(2-chloro-4-methanesulfonylbenzoyl)-1,3-cyclohexanedione]?
inhibition of the HPPD activity (Arabidopsis HPPD; at more than 1 μM sulcotrione (FIG. 4)): Nearly complete inhibition; IC50 (Arabidopsis HPPD; cell extract of transformed E. coli, pH 7.3, 30° C., 30 min (FIG. 4), read-out: concentration required to cause 50% inhibition of the HPPD activity): 100 nM; IC50 [1]: 45 nM; Ki [2]: 9.8 nM; type of inhibition [2]: potent competitive inhibitor; pigment, phytoene and tyrosine changes (susceptible plants; accompanying bleaching): loss of carotenoids and chlorophyll with an increase in phytoene and tyrosine; bleaching (susceptible plants): strong bleaching; growth inhibition (Lemna; treatment of Lemna): severely inhibited growth

With `N[C@@H](Cc1ccc(O)cc1)C(=O)O` [tyrosine] as the molecule, how does the “formation of the brown pigment” value [3] read?
Its value is “increased”.

B1: Arabidopsis HPPD: 4-hydroxyphenylpyruvate dioxygenase (HPPD) from Arabidopsis thaliana (AtHPPD) SEQ ID No: 1 (protein)
chain: MGHQNAAVSENQNHDDGAASSPGFKLVGFSKFVRKNPKSDKFKVKRFHHIEFWCGDATNVARRFSWGLGMRFSAKSDLSTGNMVHASYLLTSGDLRFLFTAPYSPSLSAGEIKPTTTASIPSFDHGSCRSFFSSHGLGVRAVAIEVEDAESAFSISVANGAIPSSPPIVLNEAVTIAEVKLYGDVVLRYVSYKAEDTEKSEFLPGFERVEDASSFPLDYGIRRLDHAVGNVPELGPALTYVAGFTGFHQFAEFTADDVGTAESGLNSAVLASNDEMVLLPINEPVHGTKRKSQIQTYLEHNEGAGLQHLALMSEDIFRTLREMRKRSSIGGFDFMPSPPPTYYQNLKKRVGDVLSDDQIKECEELGILVDRDDQGTLLQIFTKPLGDDRPTIFIEIIQRVGCMMKDEEGKAYQSGGCGGFGKGNFSELFKSIEEYEKTLEAKQLVG
With B1 as the molecule, how does the HPPD activity (Arabidopsis HPPD; extract of E. coli transformed with the Arabidopsis HPPD gene, no inhibitor) read?
The HPPD activity was 2.7 μmol/mg protein/hr.
